# Strand notation (5' to 3'): a small letter for the sugar, then the base; units joined by * are phosphorothioate-linked, units joined directly phosphodiester-linked; [ ] holds rarer units or linkages, { } end groups; capitals alone tell only the bases. k = constrained ethyl (cEt); [5mC] = 5-methylcytosine; d = 2'-deoxy (DNA)
# Tested on: Yap1 mRNA
# Experiment: Antisense inhibition of human Yap1 in A-431 cells by cEt gapmers, single dose (Example 2, RTS4814)
# Assay type: cell-based
# Conditions: A-431 cells, 5,000 cells per well, free uptake, 2,000 nM modified oligonucleotide, approx. 48 hours, RTS4814, normalized to RIBOGREEN; Table 4; asterisk (*) = targets amplicon region of primer probe set
# Procedure, shortened: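 Each 16-nucleoside gapmer (ten-deoxy gap, three-cEt wings) is tested once at 2,000 nM in A-431 cells by free uptake. Yap1 mRNA after about 48 hours is measured by quantitative RT-PCR and expressed relative to untreated control.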
row,Substance,YAP1 (% UTC)
1,716556 (kG*k[5mC]*kA*dT*dT*dA*dA*dA*dG*dA*dA*dT*dT*k[5mC]*kT*k[5mC]; antisense) [Compound 716556],39
2,716421 (kT*kA*kT*dT*dA*dG*d[5mC]*d[5mC]*dT*dG*dA*dA*dA*kA*k[5mC]*kT; antisense) [Compound 716421],86
3,716499 (kT*kT*kT*dT*dG*d[5mC]*d[5mC]*d[5mC]*dT*d[5mC]*d[5mC]*dT*d[5mC]*k[5mC]*kA*kA; antisense) [Compound 716499],102

# Same assay, conditions: Table 5; A-431 cells, 5,000 cells per well, free uptake, 2,000 nM modified oligonucleotide, approx. 48 hours; RTS4814; normalized to RIBOGREEN; Yap1 mRNA relative to untreated control cells
row,Substance,YAP1 (% UTC)
1,716380 (kT*kT*kA*dA*dG*dA*dA*dG*dT*dA*dT*d[5mC]*dT*k[5mC]*kT*kG; antisense) [Compound 716380],54
2,716569 (k[5mC]*kT*k[5mC]*d[5mC]*dT*dT*dA*dA*d[5mC]*d[5mC]*d[5mC]*dG*dG*kG*kT*kT; antisense) [Compound 716569],115
3,716506 (antisense kT*k[5mC]*kT*dG*d[5mC]*dA*dG*dT*dG*dG*d[5mC]*d[5mC]*dA*kT*kT*kT) [Compound 716506],62
4,716461 (kA*kT*kA*dA*dA*d[5mC]*dT*dA*d[5mC]*dT*dA*dG*dT*k[5mC]*kA*kT; antisense) [Compound 716461],123

# Same assay, conditions: Table 6; A-431 cells, 5,000 cells per well, free uptake, 2,000 nM modified oligonucleotide, approx. 48 hours; RTS4814; normalized to RIBOGREEN; Yap1 mRNA relative to untreated control cells
row,Substance,YAP1 (% UTC)
1,716468 (kT*k[5mC]*kA*dT*d[5mC]*dA*dG*dA*dT*dA*dA*dT*dA*kT*k[5mC]*kT; antisense) [Compound 716468],118
2,716558 (k[5mC]*kT*k[5mC]*dT*dT*dA*d[5mC]*dA*dT*d[5mC]*dT*dA*dA*kA*kA*k[5mC]; antisense) [Compound 716558],81
3,716537 (antisense kA*kT*kG*dT*dG*d[5mC]*dT*d[5mC]*d[5mC]*dA*dT*d[5mC]*dA*kA*k[5mC]*k[5mC]) [Compound 716537],36
4,716483 (k[5mC]*kA*kA*dA*dA*d[5mC]*d[5mC]*dT*dT*dA*dT*dA*dG*kT*kA*kT; antisense) [Compound 716483],159

# Same assay, conditions: Table 18; A-431 cells, 5,000 cells per well, free uptake, 2,000 nM modified oligonucleotide, approx. 48 hours; RTS4814; normalized to RIBOGREEN; Yap1 mRNA as percent of untreated control
row,Substance,YAP1 (% UTC)
1,1075876 (kG*kT*kA*dT*dT*dT*dA*dT*dG*dA*dT*dG*dA*kT*kT*k[5mC]; antisense) [Compound 1075876],6
2,1075364 (k[5mC]*kG*kA*dA*dA*dA*dT*dA*dG*dT*dT*d[5mC]*dT*k[5mC]*kA*kA; antisense) [Compound 1075364],59
3,1075972 (kT*k[5mC]*kA*d[5mC]*dA*dA*dG*dG*dG*d[5mC]*dT*dA*dA*kT*kT*k[5mC]; antisense) [Compound 1075972],22

# Same assay, conditions: Table 19; A-431 cells, 5,000 cells per well, free uptake, 2,000 nM modified oligonucleotide, approx. 48 hours; RTS4814; normalized to RIBOGREEN; Yap1 mRNA as percent of untreated control
row,Substance,YAP1 (% UTC)
1,1075525 (kT*kT*kA*dA*dT*dT*dA*dA*dG*dG*dG*d[5mC]*d[5mC]*k[5mC]*kA*k[5mC]; antisense) [Compound 1075525],130
2,1074981 (antisense kT*kT*kA*dT*dT*dG*d[5mC]*d[5mC]*dA*dG*dT*dT*d[5mC]*kT*kT*kG) [Compound 1074981],9

# Same assay, conditions: Table 20; Yap1 mRNA, percent of untreated control; 3-10-3 cEt gapmers targeting SEQ ID NO.: 1 and 2
row,Substance,YAP1 (% UTC)
1,1075302 (k[5mC]*k[5mC]*kT*dT*dA*dA*dA*dG*d[5mC]*dT*dT*d[5mC]*d[5mC]*kA*k[5mC]*k[5mC]; antisense) [Compound 1075302],75
2,1076326 (kG*k[5mC]*kT*dA*dA*dT*dA*dA*dT*dG*dG*dA*dA*kG*kA*kG; antisense) [Compound 1076326],4

# Same assay, conditions: Table 21; Yap1 mRNA, percent of untreated control; 3-10-3 cEt gapmers targeting SEQ ID NO.: 1 and 2
row,Substance,YAP1 (% UTC)
1,1075303 (kT*kA*kA*dA*d[5mC]*dT*dA*dA*dT*d[5mC]*dT*dA*d[5mC]*kA*kA*k[5mC]; antisense) [Compound 1075303],100
2,1075079 (antisense k[5mC]*kA*k[5mC]*d[5mC]*dA*dA*dA*dA*dG*d[5mC]*dT*dT*dA*kG*kT*kT) [Compound 1075079],40
3,1074183 (antisense k[5mC]*k[5mC]*kG*dG*dT*dT*dG*dA*dG*dG*d[5mC]*dG*dG*k[5mC]*kG*kG) [Compound 1074183],90
4,1076455 (antisense kA*k[5mC]*kT*dA*dA*dA*dT*dA*d[5mC]*dT*dT*dT*dT*kA*kG*k[5mC]) [Compound 1076455],86

# Same assay, conditions: Table 22; Yap1 mRNA as percent of untreated control; 3-10-3 cEt gapmers; single dose
row,Substance,YAP1 (% UTC)
1,1075304 (k[5mC]*kA*k[5mC]*dG*dG*dG*dT*dA*d[5mC]*d[5mC]*dA*dG*dA*kA*kA*kA; antisense) [Compound 1075304],50

# Same assay, conditions: Table 23; Yap1 mRNA as percent of untreated control; 3-10-3 cEt gapmers; single dose
row,Substance,YAP1 (% UTC)
1,1075561 (kG*kT*kA*dA*dG*dT*dA*dA*dG*dG*dG*dA*dA*k[5mC]*k[5mC]*k[5mC]; antisense) [Compound 1075561],32
2,1075337 (kG*k[5mC]*kT*dT*dA*dT*dA*dT*d[5mC]*d[5mC]*dT*dG*dT*kA*kA*k[5mC]; antisense) [Compound 1075337],48

# Same assay, conditions: Table 24; Yap1 mRNA as percent of untreated control; 3-10-3 cEt gapmers targeting SEQ ID NO.: 1, and 2
row,Substance,YAP1 (% UTC)
1,1075530 (kG*kA*kA*dA*dT*d[5mC]*dG*dA*dA*dG*dG*dG*d[5mC]*kA*kA*kA; antisense) [Compound 1075530],30
2,1074858 (antisense kA*kA*k[5mC]*dA*dT*dT*dG*dG*dT*dA*d[5mC]*dT*dA*kT*kA*kT) [Compound 1074858],23
3,1076362 (k[5mC]*k[5mC]*kA*d[5mC]*dT*dA*dA*dA*dT*dA*dA*dA*dG*k[5mC]*kA*kG; antisense) [Compound 1076362],16

# Same assay, conditions: Table 25; Yap1 mRNA as percent of untreated control; 3-10-3 cEt gapmers targeting SEQ ID NO.: 1, and 2
row,Substance,YAP1 (% UTC)
1,1074347 (antisense kG*kT*kT*dA*dA*dG*dG*dA*dA*dA*dG*dG*dA*kT*k[5mC]*kT) [Compound 1074347],34
2,1074859 (antisense kG*kT*kA*dA*d[5mC]*dA*dT*dT*dG*dG*dT*dA*d[5mC]*kT*kA*kT) [Compound 1074859],16
3,1075787 (k[5mC]*kT*kT*dA*dA*dG*dG*dA*dT*dT*dG*dG*d[5mC]*kT*kA*kT; antisense) [Compound 1075787],28
4,1075723 (kT*kT*kA*dT*d[5mC]*d[5mC]*dT*dA*dT*d[5mC]*d[5mC]*d[5mC]*dT*kG*kG*kT; antisense) [Compound 1075723],32

# Same assay, conditions: Table 32; Yap1 mRNA, percent of untreated control; 3-10-3 cEt gapmers targeting SEQ ID NO.: 1, and 2
row,Substance,YAP1 (% UTC)
1,1076338 (antisense k[5mC]*kA*kT*dT*dA*dA*dA*d[5mC]*d[5mC]*dA*dG*dG*dG*kA*k[5mC]*kT) [compound 1076338],33
2,1075218 (k[5mC]*kT*kT*dA*dA*d[5mC]*dA*d[5mC]*dT*dG*dG*dT*dA*kA*kG*kA; antisense) [compound 1075218],97
3,1075602 (antisense kT*kA*kT*dT*dA*dT*dA*dA*dG*dT*d[5mC]*dT*dA*k[5mC]*kA*kA) [compound 1075602],114
4,1074642 (antisense kG*kG*kG*d[5mC]*d[5mC]*dA*dA*dA*dA*dT*dA*d[5mC]*dT*kT*kA*kG) [compound 1074642],78
5,1075186 (kA*kA*kA*dT*d[5mC]*dG*dA*dT*dT*dA*dT*dT*d[5mC]*kA*kG*kA; antisense) [compound 1075186],73

# Same assay, conditions: Table 33; Yap1 mRNA, percent of untreated control; 3-10-3 cEt gapmers targeting SEQ ID NO.: 1, and 2
row,Substance,YAP1 (% UTC)
1,1075507 (kG*kT*kA*d[5mC]*dA*dA*d[5mC]*d[5mC]*dT*dA*dG*dT*dG*kA*kT*kA; antisense) [compound 1075507],82
2,1074195 (antisense k[5mC]*k[5mC]*k[5mC]*dG*dG*dG*dT*d[5mC]*d[5mC]*dG*dG*dA*d[5mC]*kG*kG*k[5mC]) [compound 1074195],79
3,1075955 (kG*kA*k[5mC]*d[5mC]*dT*dA*dT*dA*dA*dT*dA*d[5mC]*dA*kG*kA*kA; antisense) [compound 1075955],85

# Same assay, conditions: Yap1 mRNA as percent of untreated control; A-431 cells; 3-10-3 cEt gapmers targeting SEQ ID NO.: 1, and 2; Table 30
row,Substance,YAP1 (% UTC)
1,1075632 (antisense kT*k[5mC]*k[5mC]*d[5mC]*dT*dA*dT*dA*dA*d[5mC]*d[5mC]*dA*dA*kA*kT*kG) [compound 1075632],95
2,1075472 (kG*kA*kT*dT*dA*dT*dA*dG*dT*dT*dA*dA*dA*k[5mC]*kA*kG; antisense) [compound 1075472],92
3,1075600 (antisense k[5mC]*kA*k[5mC]*dT*dA*dT*dA*dA*dT*d[5mC]*dT*dG*dA*k[5mC]*k[5mC]*k[5mC]) [compound 1075600],68

# Same assay, conditions: Yap1 mRNA as percent of untreated control; A-431 cells; 3-10-3 cEt gapmers targeting SEQ ID NO.: 1, and 2; Table 31
row,Substance,YAP1 (% UTC)
1,1074705 (antisense kG*k[5mC]*kA*d[5mC]*dG*dG*dT*dG*dT*dA*dA*dG*dA*k[5mC]*kA*kA) [compound 1074705],20
2,1074961 (antisense kT*k[5mC]*k[5mC]*dT*d[5mC]*d[5mC]*dT*dT*dA*dA*d[5mC]*d[5mC]*d[5mC]*kG*kG*kG) [compound 1074961],93
